Data: article PMC9207808 (ACS Chemical Biology, 2022)
“Also recorded” adds a separate entry of the source. Residues, ends and D or L forms follow the SMILES beside them.

Columns and labels:
[1] = test system: DocSTm; assay: Surface plasmon resonance binding to immobilised Doc; parameters: species or system S. Typhimurium; settings: for koff × 10^-6 / kon × 10^6: 1:1 kinetic fit, mean ± SD of at least 3 replicates; for kon × 10^6: single-cycle kinetics (multicycle for PhdSTm1-73); for Half-life of the complex: t1/2 = ln2 / koff
Experimental: Experiments were performed in a Biacore S200 (Cytiva) with a Series S sensor chip NTA (Cytiva). The data was analyzed using the Biacore Evaluation Software (Cytiva) and curves were plotted using GraphPad Prism 5 (GraphPad Software, U.S.A.). All experiments were performed at 22 °C with a running buffer containing 10 mM HEPES, 500 mM NaCl, 50 μM EDTA, and 0.005% (v/v) TWEEN 20 at pH 8.0. The surface was conditioned following the standard manufacturer’s guidelines and protein immobilization was performed with a 30–60 s pulse (flow rate of 5 μL/min) of Doc (150 nM) in running buffer. […] Surface regeneration was performed with a 1 min pulse of 0.5 M imidazole followed by a 1 min pulse of 0.35 M of EDTA at pH 8.0.
Binding to Doc was performed using a multicycle kinetics (MCK) setup for peptides 7, 10, and 14, while the remaining samples were tested using a single-cycle kinetics (SCK) setup. The surface was fully regenerated in between each analyte in both cases. In the MCK experiments, increasing concentrations of each analyte were injected with an 80 s pulse (30 μL/min) and dissociation times varied depending on the time required to fully dissociate the complex. The double-referenced sensorgrams (raw data subtracted from a blank injection and reference surface responses) were analyzed using a kinetic and/or a steady-state 1:1 binding model. In the SCK experiments, typically six concentrations of each analyte were sequentially injected with 80 s pulses (30 μL/min), and dissociation times varied depending on the time required to dissociate at least 5% of the complex. The double-referenced sensorgrams were fitted using a kinetic 1:1 binding model.
At least three independent replicates were measured for each analyte (ESI section 5). When a steady-state fit was applied, the reported Kd and its uncertainty correspond, respectively, to the average and standard deviations of the Kd obtained in each measurement. When a kinetic fit was applied, the reported rate constants (kon and koff) and their uncertainties correspond, respectively, to the average and standard deviations of the rate constants obtained in each measurement. In this case, reported Kd were calculated using the equation below, and the standard deviation of the rate constants was propagated. [drawing 1]

[2] = test system: DocSTm; assay: Differential scanning fluorimetry (thermal stabilisation of Doc); assay type: binding, S. Typhimurium; settings: for melting temperature shift ΔTm: DSF, DocSTm 5 μM, analyte 50 μM, Tm with analyte minus Tm of free DocSTm (42.9 ± 0.9 °C), SYPRO Orange, 20 mM K2HPO4, 50 mM (NH4)2SO4, pH 8.0, triplicate; for Average Tm: average of 3 replicates
Experimental: Experiments were performed in a Mx3005P qPCR System (Agilent) collecting fluorescence data with a temperature ramp of 25 to 95 °C. Samples were prepared in a buffer containing 20 mM K2HPO4 and 50 mM (NH4)2SO4 at pH 8.0. The SYPRO Orange dye (Sigma-Aldrich, 5000× stock in DMSO) was used to monitor protein denaturation and was diluted to a final concentration of 3×. For binding experiments, the final concentration of Doc was 5 μM. Each condition was performed in triplicate (ESI section 4) and the melting curves were plotted using GraphPad Prism 5 (GraphPad Software, U.S.A.). The melting temperatures were obtained by fitting the sigmoidal section of the curves to a Boltzmann sigmoid function.

[3] = test system: DocSTm; assay: Dot blot phosphorylation assay (EF-Tu phosphorylation by Doc); assay type: biochemical, S. Typhimurium; settings: α-pThr, DocSTm 1 μM, EF-TuSTm 3 μM, ATP 1 mM, inhibitor 10 μM to 5 nM (3-fold dilutions), 16 h at RT
Experimental: Samples were prepared to a final volume of 10 μL. […] Samples were incubated for 16 h at RT and subsequently spotted on a nitrocellulose membrane. Phosphorylated EF-Tu was detected by immunodecoration using a rabbit monoclonal antiphosphothreonine antibody (Abcam, ab218195) at 1:2000 dilution (1 h at 4 °C), followed by incubation with a goat antirabbit IgG (H+L) HRP conjugate antibody (Advansta) at 1:10 000 dilution (1 h at RT). Chemiluminescence was developed using the HRP Luminata kit (Merck, WBLUR0100) and captured by an ImageQuant LAS4000 Western blot imaging system (Cytiva).

[4] = DocSTm 5 µM + 50 µM binder, replicate 1
[5] = DocSTm 5 µM + 50 µM binder, replicate 2
[6] = DocSTm 5 µM + 50 µM binder, replicate 3
[7] = SPR, kinetic fit, KD calculated from mean koff and kon, SD propagated, 22 °C, pH 8.0

Row | Compound | binding to DocSTm by SPR (in words) ([1]; SPR) | melting temperature shift ΔTm [2] [°C] | Average Tm ([2]; DocSTm 5 µM + 50 µM binder) [°C] | Tm [2, 4] [°C] | Tm [2, 5] [°C] | Tm [2, 6] [°C] | Average Tm ([2]; DocSTm 5 µM + 100 µM peptide) [°C] | Tm ([2]; DocSTm 5 µM + 100 µM peptide, replicate 1) [°C] | Tm ([2]; DocSTm 5 µM + 100 µM peptide, replicate 2) [°C] | Tm ([2]; DocSTm 5 µM + 100 µM peptide, replicate 3) [°C] | inhibition of EF-TuSTm phosphorylation by DocSTm (in words) [3] | fold decrease in affinity (given as decrease/loss in Kd) compared with peptide 1 ([1]; SPR Kd relative to wild-type peptide 1) [fold] | Kd ([1]; SPR kinetic fit, replicate 1) [nM] | Kd ([1]; SPR kinetic fit, replicate 2) [nM] | Kd ([1]; SPR kinetic fit, replicate 3) [nM] | koff × 10^-6 ([1]; SPR, 22 °C, pH 8.0) | kon × 10^6 ([1]; SPR, 22 °C, pH 8.0) | Kd [1, 7] [nM] | Half-life of the complex [1] [min] | Kd ([1]; SPR kinetic fit, replicate 4) [nM]
1 | Ac-WNELRELADK-OH [compound 25] | Affinity was too weak to be determined by SPR; also recorded: no measurable affinities could be obtained by SPR | 1.3 ± 0.9 | 44.2 ± 0.1 | 44.1 | 44.2 | 44.4 | 43.3 ± 0.1 | 43.2 | 43.2 | 43.4 | inactive |  |  |  |  |  |  |  |  | 
2 | CC[C@H](C)[C@H](NC(=O)[C@H](C)NC(=O)[C@H](C)NC(=O)[C@H](Cc1ccccc1)NC(=O)[C@H](Cc1c[nH]c2ccccc12)NC(C)=O)C(=O)N[C@@H](CCSC)C(=O)N[C@@H](C)C(=O)N[C@H](C(=O)N[C@@H](Cc1c[nH]cn1)C(=O)NCC(=O)N[C@@H](CC(N)=O)C(=O)N[C@@H](CCC(=O)O)C(=O)N[C@@H](CC(C)C)C(=O)N[C@@H](CCCNC(=N)N)C(=O)N[C@@H](CCC(=O)O)C(=O)N[C@@H](CC(C)C)C(=O)O)C(C)C [peptide 23] (Ac-WFAAIMAVHGNELREL-OH; N-terminus and C-terminus assumed) |  | 7.9 ± 1.0 | 50.7 ± 0.3 | 50.54 | 50.60 | 51.08 |  |  |  |  | inactive in all concentrations tested; also recorded: poor DocSTm inhibitors | 30 | 1.85 | 1.94 | 2.18 | 2794 ± 42 ×10^-6 s-1 | 1.413 ± 0.136 ×10^6 M-1 s-1 | 1.98 ± 0.193 | 4.14 ± 0.06 | 
3 | CC[C@H](C)[C@H](NC(=O)[C@H](C)NC(=O)[C@H](C)NC(=O)[C@H](Cc1ccccc1)NC(=O)[C@H](CCC(=O)O)NC(=O)[C@H](CC(=O)O)NC(=O)[C@H](CC(=O)O)NC(=O)[C@H](CCSC)NC(=O)[C@H](Cc1c[nH]c2ccccc12)NC(C)=O)C(=O)N[C@@H](CCSC)C(=O)N[C@@H](C)C(=O)N[C@H](C(=O)N[C@@H](Cc1c[nH]cn1)C(=O)NCC(=O)N[C@@H](CC(N)=O)C(=O)N[C@@H](CCC(=O)O)C(=O)N[C@@H](CC(C)C)C(=O)N[C@@H](CCCNC(=N)N)C(=O)N[C@@H](CCC(=O)O)C(=O)N[C@@H](CC(C)C)C(=O)N[C@@H](C)C(=O)N[C@@H](CC(=O)O)C(=O)N[C@@H](C)C(=O)O)C(C)C [peptide 19] (Ac-WMDDEFAAIMAVHGNELRELADA-OH; C-terminus assumed) |  | 25.2 ± 1.1 | 68.0 ± 0.6 | 68.8 | 67.6 | 67.7 |  |  |  |  | inhibited DocSTm at similar concentrations to peptide 1 |  | 0.101 | 0.0634 | 0.1 | 126 ± 11 ×10^-6 s-1 | 1.441 ± 0.462 ×10^6 M-1 s-1 | 0.087 ± 0.029 | 90 ± 6 | 0.103
